Experimental data from patent publication US20240116985A1, “STAPLED PEPTIDES AND METHODS THEREOF” (priority 2020, published 2024).
≈ marks a conversion by molar mass, not a printed value. Where two headings read alike, the source gives them in different places.

How the values were obtained:
CHI Log D procedure = assay type: physicochemical; conditions: pH 7.4, CHI Log D
[1] = target: T1, full-length beta-Catenin (Uniprot ID P35222) (Homo sapiens, UniProt P35222); assay: Fluorescence polarization IC50 (beta-catenin / 5FAM-TCF4 10-53 competition); assay type: binding; conditions: read-out: beta-Catenin FP IC50
T1 construct: 10 nM full-length beta-Catenin (Uniprot ID P35222)
T1 sequence (P35222 1-781): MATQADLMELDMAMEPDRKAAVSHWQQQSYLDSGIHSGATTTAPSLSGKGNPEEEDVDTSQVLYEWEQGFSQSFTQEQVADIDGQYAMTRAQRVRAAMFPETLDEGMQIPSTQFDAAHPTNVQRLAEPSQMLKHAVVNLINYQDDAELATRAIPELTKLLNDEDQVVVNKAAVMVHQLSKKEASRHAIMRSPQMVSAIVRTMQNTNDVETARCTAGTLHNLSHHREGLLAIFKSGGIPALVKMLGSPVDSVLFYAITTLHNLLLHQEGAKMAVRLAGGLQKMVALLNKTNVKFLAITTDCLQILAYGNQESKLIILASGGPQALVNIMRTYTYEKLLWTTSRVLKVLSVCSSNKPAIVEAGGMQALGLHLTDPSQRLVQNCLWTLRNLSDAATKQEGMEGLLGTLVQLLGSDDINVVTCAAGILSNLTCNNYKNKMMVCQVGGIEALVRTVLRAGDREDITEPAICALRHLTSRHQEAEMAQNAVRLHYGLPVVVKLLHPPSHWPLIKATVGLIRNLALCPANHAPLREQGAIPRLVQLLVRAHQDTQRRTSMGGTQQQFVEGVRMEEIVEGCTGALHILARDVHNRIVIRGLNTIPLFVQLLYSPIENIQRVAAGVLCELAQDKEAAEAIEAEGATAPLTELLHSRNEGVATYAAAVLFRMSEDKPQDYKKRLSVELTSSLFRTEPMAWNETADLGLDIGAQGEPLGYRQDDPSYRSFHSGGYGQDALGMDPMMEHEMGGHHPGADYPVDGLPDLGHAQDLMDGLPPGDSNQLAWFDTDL

Solubility in PBS = assay type: physicochemical
Outline: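 Read-out is the HPLC peak area of the supernatant from ultracentrifuged PBS solution, scaled against a 50 μM peptide DMSO injection; value reported as [(PBS area)/(DMSO area)]*50 uM.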

[2] = target: T2, beta-catenin/TCF4 engagement (Homo sapiens, UniProt P35222); assay: Nano-BRET target engagement assay (B-cat-Halo & TCF4-Luc in HEK293 cells); assay type: cell-based; conditions: read-out: NanoBRET Abs IC50
T2 construct: expressed in transfected cells; host or cells: HEK293
T2 sequence (P35222 1-781): T1 sequence (P35222 1-781)

chromatographic logD (CHI Log D procedure)	IC50 [1]	Solubility (Solubility in PBS)	IC50 [2]	Solubility (Solubility in PBS; Solubility (uM))	IC50 ([2]; absolute IC50)	Compound
2.61	0.06 µM	10 µM (≈ 21.9 µg/mL)	37.9 µM	–	–	CC(=O)N1CCC[C@]12CC=CCCCC1(CCCC=CCCCOC(=O)N3CC[C@@](C(=O)N[C@@H](Cc4ccccc4Cl)C(=O)N[C@@H](Cc4csc5ccccc45)C(=O)N[C@@H](CCC(N)=O)C(=O)NCCCCCCN)(C3)NC(=O)[C@H](Cc3ccccc3)NC(=O)[C@H](Cc3ccccc3)NC(=O)[C@H](C)NC(=O)[C@H](C)NC(=O)[C@H](CN(CC(=O)O)CC(F)(F)F)NC(=O)[C@H](CC(=O)O)NC1=O)NC(=O)[C@H](CC(C)(C)C)NC(=O)[C@H](CC(=O)O)NC2=O (stereo partly drawn) [I-1012, Ac-PL3-Asp-Npg-B5-Asp-TfeGA-Ala-Ala-Phe-Phe-PyrS2-2C1F-BztA-Gln-6AmHex]
2.13	0.008 µM	–	12.4 µM	47 µM (≈ 90.9 µg/mL)	–	CC(=O)N1CCC[C@]12CC=CCCCC1(CCCC=CCCCOC(=O)N3CC[C@@](C(=O)N[C@@H](Cc4ccccc4Cl)C(=O)N[C@@H](Cc4csc5ccccc45)C(=O)N[C@@H](CCC(N)=O)C(N)=O)(C3)NC(=O)[C@H]([C@@H](C)O)NC(=O)[C@H](Cc3ccccc3)NC(=O)[C@H](C)NC(=O)[C@H](C)NC(=O)[C@H](CC(=O)O)NC(=O)[C@H](CC(=O)O)NC1=O)NC(=O)[C@H](CC(C)(C)C)NC(=O)[C@H](CC(=O)O)NC2=O (stereo partly drawn) [I-1013, Ac-PL3-Asp-Npg-B5-Asp-Asp-Ala-Ala-Phe-Thr-PyrS2-2C1F-BztA-Gln-NH2]
2.38	0.019 µM	10 µM (≈ 19.3 µg/mL)	14.3 µM	–	–	CC(=O)N1CCC[C@]12CC=CCCCC1(CCCC=CCCCOC(=O)N3CC[C@@](C(=O)N[C@@H](Cc4ccccc4Cl)C(=O)N[C@@H](Cc4csc5ccccc45)C(=O)N[C@@H](CCC(N)=O)C(N)=O)(C3)NC(=O)[C@H]([C@@H](C)O)NC(=O)[C@H](Cc3ccccc3)NC(=O)[C@H](C)NC(=O)[C@H](C)NC(=O)[C@H](CC(N)=O)NC(=O)[C@H](CC(=O)O)NC1=O)NC(=O)[C@H](CC(C)(C)C)NC(=O)[C@H](CC(=O)O)NC2=O (stereo partly drawn) [I-1014, Ac-PL3-Asp-Npg-B5-Asp-Asn-Ala-Ala-Phe-Thr-PyrS2-2C1F-BztA-Gln-NH2]
2.35	0.026 µM	10 µM (≈ 19.2 µg/mL)	25.8 µM	–	–	CC(=O)N1CCC[C@]12CC=CCCCC1(CCCC=CCCCOC(=O)N3CC[C@@](C(=O)N[C@@H](Cc4ccccc4Cl)C(=O)N[C@@H](Cc4csc5ccccc45)C(=O)N[C@@H](CCC(N)=O)C(N)=O)(C3)NC(=O)[C@H](CO)NC(=O)[C@H](Cc3ccccc3)NC(=O)[C@H](C)NC(=O)[C@H](C)NC(=O)[C@H](CC(N)=O)NC(=O)[C@H](CC(=O)O)NC1=O)NC(=O)[C@H](CC(C)(C)C)NC(=O)[C@H](CC(=O)O)NC2=O (stereo partly drawn) [I-1018, Ac-PL3-Asp-Npg-B5-Asp-Asn-Ala-Ala-Phe-Ser-PyrS2-2C1F-BztA-Gln-NH2]
2.05	0.005 µM	–	–	44 µM (≈ 84.4 µg/mL)	11.5 µM	CC(=O)N1CCC[C@]12CC=CCCCC1(CCCC=CCCCOC(=O)N3CC[C@@](C(=O)N[C@@H](Cc4ccccc4F)C(=O)N[C@@H](Cc4csc5ccccc45)C(=O)N[C@@H](CCC(N)=O)C(N)=O)(C3)NC(=O)[C@H]([C@@H](C)O)NC(=O)[C@H](Cc3ccccc3)NC(=O)[C@H](C)NC(=O)[C@H](C)NC(=O)[C@H](CC(=O)O)NC(=O)[C@H](CC(=O)O)NC1=O)NC(=O)[C@H](CC(C)(C)C)NC(=O)[C@H](CC(=O)O)NC2=O (stereo partly drawn) [I-1021, Ac-PL3-Asp-Npg-B5-Asp-Asp-Ala-Ala-Phe-Thr-PyrS2-2FF-BztA-Gln-NH2]
2.29	0.033 µM	–	13.7 µM	20 µM (≈ 38.3 µg/mL)	–	CC(=O)N1CCC[C@]12CC=CCCCC1(CCCC=CCCCOC(=O)N3CC[C@@](C(=O)N[C@@H](Cc4ccccc4F)C(=O)N[C@@H](Cc4csc5ccccc45)C(=O)N[C@@H](CCC(N)=O)C(N)=O)(C3)NC(=O)[C@H]([C@@H](C)O)NC(=O)[C@H](Cc3ccccc3)NC(=O)[C@H](C)NC(=O)[C@H](C)NC(=O)[C@H](CC(N)=O)NC(=O)[C@H](CC(=O)O)NC1=O)NC(=O)[C@H](CC(C)(C)C)NC(=O)[C@H](CC(=O)O)NC2=O (stereo partly drawn) [I-1022, Ac-PL3-Asp-Npg-B5-Asp-Asn-Ala-Ala-Phe-Thr-PyrS2-2FF-BztA-Gln-NH2]
2.17	0.01 µM	–	15 µM	46 µM (≈ 86.3 µg/mL)	–	CC(=O)N1CCC[C@]12CC=CCCCC1(CCCC=CCCCOC(=O)N3CC[C@@](C(=O)N[C@@H](Cc4ccccc4F)C(=O)N[C@@H](Cc4csc5ccccc45)C(=O)N[C@@H](CO)C(N)=O)(C3)NC(=O)[C@H]([C@@H](C)O)NC(=O)[C@H](Cc3ccccc3)NC(=O)[C@H](C)NC(=O)[C@H](C)NC(=O)[C@H](CC(=O)O)NC(=O)[C@H](CC(=O)O)NC1=O)NC(=O)[C@H](CC(C)(C)C)NC(=O)[C@H](CC(=O)O)NC2=O (stereo partly drawn) [I-1023, Ac-PL3-Asp-Npg-B5-Asp-Asp-Ala-Ala-Phe-Thr-PyrS2-2FF-BztA-Ser-NH2]
2.42	0.011 µM	–	–	47 µM (≈ 90.9 µg/mL)	8.8 µM	CC(=O)N1CCC[C@]12CC=CCCCC1(CCCC=CCCCOC(=O)N3CC[C@@](C(=O)N[C@@H](Cc4ccccc4Cl)C(=O)N[C@@H](Cc4csc5ccccc45)C(=O)N[C@@H](C(N)=O)[C@H](C)O)(C3)NC(=O)[C@H](CC(N)=O)NC(=O)[C@H](Cc3ccccc3)NC(=O)[C@H](C)NC(=O)[C@H](C)NC(=O)[C@H](CCC(=O)O)NC(=O)[C@H](CC(=O)O)NC1=O)NC(=O)[C@H](CC(C)(C)C)NC(=O)[C@H](CC(=O)O)NC2=O (stereo partly drawn) [I-1031, Ac-PL3-Asp-Npg-B5-Asp-Glu-Ala-Ala-Phe-Asn-PyrS2-2C1F-BztA-dThr-NH2]
2.43	0.015 µM	–	10.4 µM	44 µM (≈ 83.3 µg/mL)	–	CC(=O)N1CCC[C@]12CC=CCCCC1(CCCC=CCCCOC(=O)N3CC[C@@](C(=O)N[C@@H](Cc4ccccc4Cl)C(=O)N[C@@H](Cc4csc5ccccc45)C(=O)N[C@@H](C(N)=O)[C@H](C)O)(C3)NC(=O)[C@H](CO)NC(=O)[C@H](Cc3ccccc3)NC(=O)[C@H](C)NC(=O)[C@H](C)NC(=O)[C@H](CC(=O)O)NC(=O)[C@H](CC(=O)O)NC1=O)NC(=O)[C@H](CC(C)(C)C)NC(=O)[C@H](CC(=O)O)NC2=O (stereo partly drawn) [I-1032, Ac-PL3-Asp-Npg-B5-Asp-Asp-Ala-Ala-Phe-Ser-PyrS2-2C1F-BztA-dThr-NH2]
2.5	0.01 µM	–	8.6 µM	34 µM (≈ 64.8 µg/mL)	–	CC(=O)N1CCC[C@]12CC=CCCCC1(CCCC=CCCCOC(=O)N3CC[C@@](C(=O)N[C@@H](Cc4ccccc4Cl)C(=O)N[C@@H](Cc4csc5ccccc45)C(=O)N[C@@H](C(N)=O)[C@H](C)O)(C3)NC(=O)[C@H]([C@@H](C)O)NC(=O)[C@H](Cc3ccccc3)NC(=O)[C@H](C)NC(=O)[C@H](C)NC(=O)[C@H](CC(=O)O)NC(=O)[C@H](CC(=O)O)NC1=O)NC(=O)[C@H](CC(C)(C)C)NC(=O)[C@H](CC(=O)O)NC2=O (stereo partly drawn) [I-1033, Ac-PL3-Asp-Npg-B5-Asp-Asp-Ala-Ala-Phe-Thr-PyrS2-2ClF-BztA-dThr-NH2]
